The test system of assay [1] is full-length CRF2α receptor promoter (−3898 construct). The assay can be described thus: Luciferase reporter expression from the full-length (−3898) CRF2α receptor promoter construct in transfected CHO-K1 cultures. The following applies: CHO-K1, −3898 construct, forskolin 10 μM without IBMX, 24 hours; for change in expression from the full-length CRF2α promoter compared with control cultures: CRF, urocortin, dexamethasone 1 μM, vs untreated (CRF, urocortin) or DMSO control. It counts as cell-based, human. As for the experimental part: (§1) In one embodiment, the present invention is a transfected cell line. One preferred method of creating such a cell line is described as follows: The constructs described above containing the human or rat promoter fragments placed upstream of the firefly luciferase gene are used to transfect immortalized cell lines. The constructs are transfected into CHO-K1 and A7R5 cell lines using lipofectamine 2000 (Life Technologies, Rockville, Md.). […] Both cell lines can be maintained at 37° C. with 5% CO2 in DMEM supplemented with 10% fetal bovine serum. Primary cultures of the central nervous system, as well as additional immortalized cell lines, are also appropriate for these transfections. To control for transfection efficiency, the cells are also co-transfected with the pRL-TK vector (Promega, Madison, Wis.). The pRL-TK vector contains the Renilla luciferase gene downstream of the herpes simplex virus thymidine kinase promoter, a promoter which provides low to moderate levels of expression. Cell lysates are assayed for total protein using the BCA assay (Pierce, Rockford, Ill.) to standardize for the protein extraction. The level of reporter gene expression from a standardized amount of cell extract is quantified by measuring luciferase activity using a luminometer (EG&G Wallac, Gaithersburg, Md.) and the dual-luciferase reporter assay system (Promega, Madison, Wis.). Firefly luciferase activity reflects CRF2α receptor promoter activity and Renilla luciferase activity is used to normalize data between experiments.
A stated goal for the constructs is the ability to identify agents that can alter expression of the CRF2α gene. […] Using methods previously described in this application, CHO-K1 cultures were transfected with the −3898 construct and the pRL-TK internal control construct. These cultures were then treated with either CRF (1 μM), urocortin (1 μM), dexamethasone (1 μM), forskolin (10 μM), or the appropriate control at the time of transfection. […]
(In general: A reporter such as luciferase makes a cellular process visible.)

For assay [2] the test system is unchanged. The assay is described as follows: Luciferase reporter expression from the full-length (−3898) CRF2α receptor promoter construct in transfected A7R5 cultures. It is filed as cell-based, human. As to conditions: for effect of antagonist on CRF or urocortin induced reduction in expression from the full length promoter: antagonist 1 μM plus CRF or urocortin 1 μM; for change in expression from the −3898 construct compared to untreated control cultures: agonist 1 μM alone, p<0.001. As for the experimental part:
as §1
Using a similar experimental paradigm, we treated A7R5 cultures to determine what agents may alter expression from the CRF2α promoter. In addition to treating the cultures with CRF and urocortin (1 μM each), A7R5 cultures also were treated with either of the antagonists alone D-Phe or DMP696 (1 μM each), CRF plus D-Phe (1 μM each), CRF plus DMP696 (1 μM each), urocortin plus D-Phe (1 μM each), and with urocortin plus DMP696 (1 μM each). D-Phe is a non-selective CRF receptor antagonist, blocking both CRF1 and CRF2 receptors, whereas DMP696 is specific to CRF1 receptors. A7R5 cultures are known to express CRF2 receptors and should be a highly appropriate cell type to monitor CRF2α receptor expression.
In a separate experiment the effects of forskolin and dexamethasone were compared to DMSO control A7R5 cultures. […] These findings are consistent with those seen in the CHO-K1 cultures.

Ends that are not written are not given here.

Take `C=C[C@@]1(C)CC(=O)[C@]2(O)[C@@]3(C)[C@@H](O)CCC(C)(C)[C@@H]3[C@H](O)[C@H](OC(C)=O)[C@@]2(C)O1` [forskolin]: the “mean expression (firefly luciferase activity normalized to Renilla luciferase)” value in assay [1] (DMSO control mean 0.411±0.004, p<0.001) is 0.302±0.012.

For `COCC(COC)Nc1nc(C)nc2c(-c3ccc(Cl)cc3Cl)c(C)nn12` [DMP696], the “effect of antagonist on CRF or urocortin induced reduction in expression from the full length promoter” value in assay [2] is given as “did not affect either the CRF or urocortin induced reduction in expression”.

In the case of “urocortin: neurotransmitter similar to CRF; ligand for the CRF receptors (DNPSLSIDLTFHLLRTLLELARTQSQRERAEQNRIIFDSV; ends and bridges not checked; UniProt P55089 83-122, looked up)”, in assay [2], the “change in expression from the −3898 construct compared to untreated control cultures” value is “significantly decrease expression”. Moreover, in assay [1], the “change in expression from the full-length CRF2α promoter compared with control cultures” value is “did not significantly change expression”. On to D-Phe, for which, in assay [2], the “effect of antagonist on CRF or urocortin induced reduction in expression from the full length promoter” value is recorded as “brought expression from the full length promoter back to the levels seen in the untreated controls”. Turning to “CRF: hormone and neurotransmitter; ligand for the CRF receptors”, the “change in expression from the −3898 construct compared to untreated control cultures” value in assay [2] is on record as “significantly decrease expression”. Besides, the “change in expression from the full-length CRF2α promoter compared with control cultures” value in assay [1] was “did not significantly change expression”.
